# In patent US20200239921A1, “CHEMOENZYMATIC SYNTHESIS OF S-NUCLEOSYL AMINO ACIDS (SNA), ANALOGS OF S-ADENOSYL-L-METHIONINE AND S-ADENOSYL-L- HOMOCYSTEINE AND USES THEREOF” (ALBERT EINSTEIN COLLEGE OF MEDICINE, priority 2016, published 2020):
# Assays:
# [1] = tested on: AK/MK/PK enzymatic system; test: AK/MK/PK enzymatic conversion to nucleoside triphosphate; type: biochemical
# [2] = target: T1, S-adenosyl-L-homocysteine hydrolase from Lupinus luteus (L/SAHH) (Lupinus luteus, UniProt Q9SP37); test: SAHH-catalysed synthesis of SAH analogs; type: biochemical; conditions: in vitro, reaction displaced toward SAH production
# T1 construct: made in house; host or cells: E. coli
# T1 sequence (Q9SP37 1-485): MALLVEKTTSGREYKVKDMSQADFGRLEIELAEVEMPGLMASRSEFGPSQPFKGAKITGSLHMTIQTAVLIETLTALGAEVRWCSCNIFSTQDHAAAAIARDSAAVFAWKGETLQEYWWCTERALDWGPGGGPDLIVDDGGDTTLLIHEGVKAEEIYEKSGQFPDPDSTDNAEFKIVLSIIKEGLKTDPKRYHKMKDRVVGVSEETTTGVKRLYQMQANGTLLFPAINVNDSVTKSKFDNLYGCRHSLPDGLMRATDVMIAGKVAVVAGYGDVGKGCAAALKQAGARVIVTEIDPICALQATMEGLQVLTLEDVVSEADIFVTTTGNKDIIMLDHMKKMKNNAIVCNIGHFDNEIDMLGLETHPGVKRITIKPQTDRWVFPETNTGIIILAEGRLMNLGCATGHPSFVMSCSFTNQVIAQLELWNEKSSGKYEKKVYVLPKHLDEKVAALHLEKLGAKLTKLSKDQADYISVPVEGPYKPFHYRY
# From the text: Alternative chemoenzymatic routes. A few SNA probes are difficult to prepare. To broaden the substrate diversity, the reversible reaction catalyzed by S-adenosyl-L-homocysteine hydrolase from Lupinus luteus (L/SAHH) that is displaced toward SAH production in vitro was used (FIG. 5B). […] This powerful catalyst was a useful tool for production of S-nucleosyl-L-homocysteine and S-nucleosyl-L-cysteine analogs (SNH and SNC, respectively). Unlike SAM analogs, SNH and SNC probes are not substrates for PRMTs, so they are assayed as competitive inhibitors.
# [3] = target: T2, Methanococcus jannaschii MAT (MjMAT) (Methanocaldococcus jannaschii, UniProt Q58605); test: MjMAT substrate specificity (HPLC); type: biochemical; conditions: in the presence of ATP
# T2 construct: made in house; host or cells: E. coli
# T2 sequence (Q58605 1-406): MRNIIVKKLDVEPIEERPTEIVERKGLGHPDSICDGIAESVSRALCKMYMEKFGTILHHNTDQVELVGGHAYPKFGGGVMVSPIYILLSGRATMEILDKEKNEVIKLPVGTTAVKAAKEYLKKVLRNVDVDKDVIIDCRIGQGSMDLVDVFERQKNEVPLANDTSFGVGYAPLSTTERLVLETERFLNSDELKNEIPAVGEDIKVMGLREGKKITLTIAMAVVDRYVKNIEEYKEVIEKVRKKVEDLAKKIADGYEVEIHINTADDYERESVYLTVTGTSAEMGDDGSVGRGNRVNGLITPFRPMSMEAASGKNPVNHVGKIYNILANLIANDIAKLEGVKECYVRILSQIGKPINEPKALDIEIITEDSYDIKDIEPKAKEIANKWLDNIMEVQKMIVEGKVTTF
# Protocol: Synthetic chemical approaches yield a 1:1 mixture of the two SAM stereoisomers (FIG. 4A, shaded middle frame). The enzymes that catalyze the formation of SAM from ATP and L-methionine in vivo are used to produce SAM analogs (MAT; FIG. 4A, top enzymatic approach). Adenosine phosphorylation is performed by kinases (e.g. adenosine kinase ‘AK’, myokinase ‘MK’ and pyruvate kinase ‘PK’; FIG. 4, top enzymatic approach). MAT proteins are well characterized and several mechanistic and structural biology reports make these enzymes the preferred biocatalyst for rapid access to SAM analogs. Methanococcus jannaschii MAT has been purified (MjMAT; FIG. 4B).
# (§1) An enzyme array to incorporate a broad spectrum of methionine analogs. To expand the SNA library, the reactivity of several methionine analogs (FIG. 4C, amino-acid tail labelled ‘METHIONINE’) was screened toward MjMAT in the presence of ATP. […] MAT enzymes from Neisseria meningitidis (Nm) and Campylobacter jejuni (Cj) (FIG. 4B) were expressed and purified.
# [4] = tested on: MAT from Neisseria meningitidis (NmMAT); test: NmMAT methionine analog specificity; type: biochemical; conditions: FIG. 6
# From the text: as §1
# [5] = tested on: MAT from Campylobacter jejuni (CjMAT); test: CjMAT methionine analog specificity; type: biochemical; conditions: FIG. 6
# From the text: as §1
# [6] = target: T3, SAM-dependent chlorinase from Salinispora tropica (StSalL) (Salinispora tropica, UniProt A4X3Q0); test: StSalL methionine analog specificity; type: biochemical; conditions: in the presence of 5′-chloro-5′-deoxy adenosine
# T3 construct: made in house; host or cells: E. coli
# T3 sequence (A4X3Q0 1-283): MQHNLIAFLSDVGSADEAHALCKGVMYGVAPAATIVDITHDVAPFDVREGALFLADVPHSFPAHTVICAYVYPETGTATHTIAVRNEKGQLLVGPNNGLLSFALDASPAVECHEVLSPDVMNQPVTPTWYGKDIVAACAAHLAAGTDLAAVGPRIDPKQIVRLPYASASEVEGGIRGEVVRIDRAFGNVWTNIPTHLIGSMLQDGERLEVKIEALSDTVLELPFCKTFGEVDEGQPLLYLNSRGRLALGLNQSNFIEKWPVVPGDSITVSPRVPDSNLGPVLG
# Protocol: The unique SAM-dependent chlorinase from the marine organism Salinispora tropica (StSalL) is a key enzyme for salinosporamide A biosynthesis. Although the occurrence of high chloride concentration (i.e. 546 mM) in sea water shifts the chemical equilibrium away from SAM synthesis, this reaction is reversible in vitro. StSalL (FIG. 4B) was expressed and purified, and the methionine analog specificity for this enzyme was determined in the presence of 5′-chloro-5′-deoxy adenosine (5′-ClDA; FIG. 6).
# PRMT1 = conditions: cited from earlier work
# methyltransferases = conditions: FIG. 2 first row from table; cited from earlier work
smiles,measurement,setting,value
Nc1ncnc2c1ncn2[C@@H]1O[C@H](CO)[C@@H](O)[C@@H]1F [942′-deoxy-2′-fluoro-β-D-arabinofuranosylladenine],reactivity in AK/MK/PK enzymatic system,[1],low reactivity
N[C@@H](CS)C(=O)O [L-cysteine],utilization as substrate by SAHH,[2],could utilize
N[C@@H](CCS)C(=O)O [L-homocysteine],utilization as substrate by SAHH,[2],could utilize
"CSCC[C@H](N)C(=O)O [M0, L-methionine]",reactivity of methionine analog toward MjMAT,[3],efficiently processed
"CSCC[C@@H](N)C(=O)O [M1, D-methionine]",reactivity of methionine analog toward MjMAT,[3],efficiently processed
"CSCC[C@](C)(N)C(=O)O [M2, α-methyl-methionine]",reactivity of methionine analog toward NmMAT,[4],substrate
same,reactivity of methionine analog toward CjMAT,[5],substrate
"CSCC[C@H](N)CO [M3, (S)-(−)-methioniol]",reactivity of methionine analog toward CjMAT,[5],excellent substrate
"CSCCC(O)C(=O)O (centres unmarked) [M4, 2-hydroxy-4-(methylthio) butanoic acid]",reactivity of methionine analog toward MjMAT,[3],reactivity was not observed
same,reactivity of methionine analog toward NmMAT,[4],reactivity was not observed
same,reactivity of methionine analog toward CjMAT,[5],reactivity was not observed
same,reactivity of methionine analog toward StSalL,[6],Reactivity was observed
NCCCSC[C@H]1O[C@@H](n2cnc3c(N)ncnc32)[C@H](O)[C@@H]1O [S-(5′-adenosyl)-3-thiopropylamine],selectivity for PRMT1 over PRMT6,PRMT1,10 fold
"Nc1ncnc2c1ncn2[C@@H]1O[C@H](CSCC[C@H](N)C(=O)O)[C@@H](O)[C@H]1O [SAH, S-adenosyl-L-homocysteine]",inhibition of methyltransferases (in words),methyltransferases,"potent, yet non-specific, inhibitor of methyltransferases"
